One data set has as its system HCT-116/5-FU-R cells. In words: Matrigel invasion assay. The format is cell-based. As to conditions: SiChk2 and PV1019 pre-treated conditions, 48 h. The text has this: To examine whether 4DPG-mediated repression of Vimentin and invasiveness is a Chk2-dependent process, we performed genetic silencing of endogenous Chk2 in the 5-FU-R cells using target-specific SiRNAs.
Fig. 3 Chk2-dependent role of 4DPG in modulating p53 and repressing Vimentin expression in 5-FU-R cells. A Immunocytochemistry results showing the Vimentin expression level in SW-620/5-FU-R cells treated/transfected with scramble, SiChk2, scramble plus 4DPG, SiChk2 plus 4DPG, vehicle, PV1019, 4DPG, and PV1019 plus 4DPG for 48 h. Scale bars: 50 µm. […] C Matrigel invasion assay results showing invaded HCT-116/5-FU-R and SW-620/5-FU-R cells following 48 h of transient transfection with GFP and GFP-Chk2 plasmid construct. Scale bars: 50 µm. D Quantification of the number of invaded cells per field from the above experimental conditions. n = 3, error bars, mean ± SD; *P < 0.05, ***P < 0.001. E Immunocytochemistry results displaying Vimentin expression levels in HCT-116/5-FU-R and SW-620/5-FU-R cells after 48 h of transient transfection with pCDNA3 and/or HA-Chk2 plasmid construct. Scale bars: 50 µm. F Immunoprecipitation with Vimentin or p53 followed by western blotting analysis of p53 in SW-620/5-FU-R cells treated with vehicle and/or 4DPG (300 nM) for 48 h. […]

Data set [1] relates to orthotopic rat colorectal carcinoma. As to conditions: 25 mg/kg thrice a week for 3 weeks. The text has this: To examine the antitumor and anti-metastatic efficacy of 4DPG in vivo, we employed a carcinogen-induced orthotopic rat colorectal carcinoma model. […] The schematic representation briefly describes the steps involved in the generation of orthotopic colorectal tumors along with the treatment strategy and further analysis (details in “Materials and methods”). The animals were euthanized at the end of the experiment and evaluated for tumor and metastatic burden (Fig. 4A). […] To validate whether our in vitro observations on mechanistic inhibition of EMT and invasion by 4DPG hold true in vivo, we performed immunohistochemical analysis of the tumor tissues acquired from the saline and 4DPG-treated animal groups.
A Model depicting the procedure adopted for generating the carcinogen-induced orthotopic rat CRC model, treatment strategies of 4DPG, evaluation of tumor burden, and further biochemical analysis. B Representative images of large bowel showing the colorectal tumor growth in saline, 5-FU (25 mg/kg), and 4DPG (25 mg/kg) treated groups of animals. C, D Quantification of tumor volume and number of polyps per rat in above groups of animals. n = 6 rats per group, error bars: mean ± SD; *P < 0.05, **P < 0.01, ***P < 0.001. E Representative images of the lungs dissected from the above groups of animals showing metastatic tumor burden. Orange arrows indicating bumps of secondary tumors over each lobe of lungs. F, G Quantification of a number of macroscopic secondary tumors over the lung tissues and lung weight in the above groups of animals. n = 6 rats per group, error bars, mean ± SD; **P < 0.01, ***P < 0.001. […] Scale bar: 50 µm. I Western blots depicting expression of p-Chk2 (Thr68), Chk2, p53, p-Vimentin (Ser38), and Vimentin in tumor tissues obtained from saline- and 4DPG-treated groups of animals. β-Actin expression was taken as endogenous loading control. J Densitometry analysis of the above western blot bands portraying relative protein expression of the markers presented. n = 3, error bars: mean ± SD; **P < 0.01, ***P < 0.001.
Animal studies were performed following the guidelines approved by Institutional Animal Ethics Committee (IAEC No. 51/02/15) of CSIR-Indian Institute of Integrative Medicine, Jammu, India. The experiment was performed according to our standardized protocol described previously with necessary modifications. Five-weeks-old healthy male Wistar rats (body weight 150–200 g) were maintained in aseptic condition with free access to food and water. Animals were randomized into three groups, with six animals per group. All the rats received intrarectal instillation of 0.5 mL of freshly prepared 0.4% aqueous solution of N-methyl-N-nitrosourea (MNU) thrice a week for 3 weeks, for the orthotopic induction of colorectal tumors. The solution was injected using sterile syringe with attached 8-cm long rubber catheter tube inserted two-thirds into the colon lumen through anal orifice, as described previously. The animals were kept under continuous monitoring, and the body weight was measured once per week. Following 22 weeks after the initiation of MNU administration, treatment regimens were started by administering 5-FU (25 mg/kg), and 4DPG (25 mg/kg) thrice a week for 3 weeks. The control and treatment groups of animals were dosed separately by three independent investigators and the outcomes were assessed by a fourth investigator blind about the dosing process and treatment regimen.

Take `COc1cc([C@@H]2c3cc4c(cc3C[C@H]3COC(=O)[C@@H]32)OCO4)cc(OC)c1O[C@@H]1O[C@H](CO)[C@@H](O)[C@H](O)[C@H]1O` [4DPG, 4′-demethyl-deoxypodophyllotoxin glucoside]: the “effect of 4DPG to block invasion abilities” value with HCT-116/5-FU-R cells is “distinctly reduced”. In addition, in data set [1], the lung metastases result was “strongly prevented the development of lung metastases”. In addition, the drug-related toxicity/adverse effects entry in data set [1] (until end of experiment) is “without any drug-related toxicity/adverse effects”. Further, the “average number of polyps” value in data set [1] (control group 16) came to 3. Moreover, the mean tumor volume in data set [1] (saline control 820.6 mm^3) was 116.8 mm^3.

Values taken from PMC7838189, “Natural podophyllotoxin analog 4DPG attenuates EMT and colorectal cancer progression via activation of checkpoint kinase 2” (Cell Death Discovery, 2021).
